Read-outs that look alike come from different tables or passages of the source.

Format in all cases: in vivo
Test [1] relates to ryegrass, Italian (Italian ryegrass, Lolium multiflorum). The test can be described thus: Test A postemergence. Conditions: Lolium multiflorum, post-emergence, 240 h, read-out: Plant response rating, Ryegrass, Italian; for pest or weed control at 125 g/ha: 125 g ai/ha. The essentials: (§1)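 Visual injury scores from 0, no effect, to 100, complete control, were assigned versus untreated controls roughly 10 d after treatment in the greenhouse. Test chemicals, formulated with surfactant in a non-phytotoxic solvent, were applied to planted seeds as a preemergence soil spray or postemergence to one- to two-leaf plants 2 to 10 cm tall, in loam–sand soil.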

In test [2] the test system is giant foxtail (Setaria faberii). The test can be described thus: Test A postemergence. Conditions: Setaria faberi, post-emergence, 240 h, read-out: Plant response rating, Foxtail, Giant; for pest or weed control at 125 g/ha: 125 g ai/ha. The essentials:
as §1

The subject of test [3] is barnyardgrass (Echinochloa crus-galli). Description: Test A postemergence. Conditions: Echinochloa crus-galli, post-emergence, 240 h, read-out: Plant response rating, Barnyardgrass; for pest or weed control at 125 g/ha: 125 g ai/ha. The essentials: as §1
Test [4] relates to pigweed (Amaranthus retroflexus). The test can be described thus: Test A postemergence. Conditions: Amaranthus retroflexus, post-emergence, 240 h, read-out: Plant response rating, Pigweed; for pest or weed control at 125 g/ha: 125 g ai/ha. The essentials: as §1
The test system of a further test is Kochia (Kochia scoparia). Description: Test A preemergence. Conditions: Bassia scoparia, pre-emergence, 240 h, read-out: Plant response rating, Kochia; for pest or weed control at 125 g/ha: 125 g ai/ha; for pest or weed control at 500 g/ha: 500 g ai/ha. The essentials:
as §1

For test [5], the system named is ragweed (common ragweed, Ambrosia elatior). Description: Test A preemergence. Particulars: Ambrosia artemisiifolia, pre-emergence, 240 h, read-out: Plant response rating, Ragweed; for pest or weed control at 125 g/ha: 125 g ai/ha; for pest or weed control at 500 g/ha: 500 g ai/ha. The essentials:
as §1

For test [6], the system named is ryegrass, Italian (Italian ryegrass, Lolium multiflorum). The test can be described thus: Test A preemergence. Particulars: Lolium multiflorum, pre-emergence, 240 h, read-out: Plant response rating, Ryegrass, Italian; for pest or weed control at 125 g/ha: 125 g ai/ha; for pest or weed control at 500 g/ha: 500 g ai/ha. The essentials: as §1
For test [7], the system named is giant foxtail (Setaria faberii). Description: Test A preemergence. Particulars: Setaria faberi, pre-emergence, 240 h, read-out: Plant response rating, Foxtail, Giant; for pest or weed control at 125 g/ha: 125 g ai/ha; for pest or weed control at 500 g/ha: 500 g ai/ha. The essentials: as §1
The test system of test [8] is barnyardgrass (Echinochloa crus-galli). The test can be described thus: Test A preemergence. Conditions: Echinochloa crus-galli, pre-emergence, 240 h, read-out: Plant response rating, Barnyardgrass; for pest or weed control at 125 g/ha: 125 g ai/ha; for pest or weed control at 500 g/ha: 500 g ai/ha. The essentials:
as §1

The test system of test [9] is pigweed (Amaranthus retroflexus). Description: Test A preemergence. Conditions: Amaranthus retroflexus, pre-emergence, 240 h, read-out: Plant response rating, Pigweed; for pest or weed control at 125 g/ha: 125 g ai/ha; for pest or weed control at 500 g/ha: 500 g ai/ha.
Test [10] concerns sedge, umbrella (small-flower umbrella sedge, Cyperus difformis). Description: Test B flooded paddy test. Conditions: Cyperus difformis, Flood, 250 g ai/ha. The essentials: (§2)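 Rating scale 0–100 (visual, vs untreated controls) after a 13–15 d greenhouse period; application to the flood layer, 3 cm above soil and maintained; plants at 2-leaf stage when treated.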
The test system of a further test is rice (Oryra sativa). The test can be described thus: Test B flooded paddy test. Conditions: Oryza sativa, Flood, 250 g ai/ha. The essentials: as §2
In test [11] the test system is barnyardgrass (Echinochloa crus-galli). The test can be described thus: Test B flooded paddy test. Particulars: Echinochloa crus-galli, Flood, 250 g ai/ha. The essentials: as §2
Test [12] relates to ducksalad (Heteranthera limosa). Description: Test B flooded paddy test. Conditions: Heteranthera limosa, Flood, 250 g ai/ha. The essentials: as §2
The mark [13] stands for this setting: postemergence, visual injury after approximately 10 d, 0 to 100 scale (0 no effect, 100 complete control).
The mark [14] stands for this setting: preemergence, visual rating after approx. 10 d, 0 to 100 scale where 0 is no effect and 100 is complete control.
[15] abbreviates: preemergence, 0 to 100 scale, 0 = no effect, 100 = complete control.
[16] abbreviates: Postemergence, visual injury after approx. 10 d, 0 to 100 scale, 0 no effect, 100 complete control.
Setting [17] is: Postemergence, 500 g ai/ha, visual injury, 0 to 100 scale (0 no effect, 100 complete control), approx. 10 d.
Where [18] appears, read: preemergence, 0 to 100 scale (0 no effect, 100 complete control).
Setting [19] is: Preemergence, 0 to 100 scale (0 no effect, 100 complete control).

Take `Cc1cc([C@H]2CNC(=O)[C@@H]2C(=O)Nc2ccc(F)cc2F)ccc1F` [Compound 718]: the pest or weed control at 125 g/ha is 0% in [1] (setting [13]); 30% in test [2] (setting [13]); 70% in test [3] (setting [13]); 0% in [4] (setting [13]); 0% in the test on Kochia (Kochia scoparia) (setting [14]); 0% in [5] (setting [14]). Moreover, the pest or weed control at 125 g/ha in test [6] (setting [14]) was 30%; in [7] (setting [14]), 70%; in test [8] (setting [14]) it was 90%; in test [9] (setting [14]) it was 0%. Moreover, the pest or weed control at 500 g/ha in the test with Kochia (Kochia scoparia) (setting [15]) was found to be 60%; in test [5] (setting [15]), 40%; in test [6] (setting [15]), 30%; in test [7] (setting [15]), 90%; in test [8] (setting [15]) it was 90%; in test [9] (setting [15]) it was 0%. In addition, the pest or weed control at 250 g/ha in test [10] (scale of 0 to 100 where 0 is no effect and 100 is complete control, read-out: Sedge, Umbrella plant response rating) was 0%; in the test with rice (Oryra sativa) (scale of 0 to 100 where 0 is no effect and 100 is complete control, read-out: Rice plant response rating), 0%; in test [11] (scale of 0 to 100 where 0 is no effect and 100 is complete control, read-out: Barnyardgrass plant response rating) it was 40%; in test [12] (scale of 0 to 100 where 0 is no effect and 100 is complete control, read-out: Ducksalad plant response rating), 100%.

`O=C1NC[C@H](c2nccc(C(F)(F)F)n2)[C@H]1C(=O)Nc1cccc(F)c1F` [Compound 1392]: the pest or weed control at 125 g/ha (in test [1] (setting [16]); in test [2] (setting [16]); in test [3] (setting [16]); in test [4] (setting [16]); in the test with Kochia (Kochia scoparia) (setting [19]); in test [5] (setting [19])) was 0% each time. The pest or weed control at 125 g/ha in [6] (setting [19]), in test [7] (setting [19]), in test [8] (setting [19]) and in test [9] (setting [19]) was 0% each time. Moreover, the pest or weed control at 500 g/ha was found to be 0% in test [1] (setting [17]); 30% in [2] (setting [17]); 40% in test [3] (setting [17]); 0% in [4] (setting [17]); 0% in the test on Kochia (Kochia scoparia) (setting [18]); 0% in test [5] (setting [18]). Besides, the pest or weed control at 500 g/ha in test [6] (setting [18]) came out at 0%; in test [7] (setting [18]), 60%; in test [8] (setting [18]), 60%; in test [9] (setting [18]) it was 0%. The pest or weed control at 250 g/ha in [10] (360 h, visually evaluated after 13 to 15 d, read-out: Plant response rating, Sedge, Umbrella (0 to 100 scale where 0 is no effect and 100 is complete control)) amounted to 0%; with rice (Oryra sativa) (360 h, visually evaluated after 13 to 15 d, read-out: Plant response rating, Rice (0 to 100 scale where 0 is no effect and 100 is complete control)) it was 0%; in test [11] (360 h, visually evaluated after 13 to 15 d, read-out: Plant response rating, Barnyardgrass (0 to 100 scale where 0 is no effect and 100 is complete control)) it was 0%; in test [12] (360 h, visually evaluated after 13 to 15 d, read-out: Plant response rating, Ducksalad (0 to 100 scale where 0 is no effect and 100 is complete control)), 30%.

(Values after patent US12077503B2, “Substituted cyclic amides and their use as herbicides” (FMC CORPORATION, priority 2015, dated 2024).)
